Laboratory results taken from US11505575B2, “Cyclic polypeptides for PCSK9 inhibition” (Merck Sharp & Dohme LLC, priority 2018, dated 2022).
*1 amine or outer side, *2 acyl side, *3 side chain or, on linkers, in order; H or OH if unused. Where a SMILES comes first, the peptide text is derived from it. Bridges are numbered along the chain shown (N, C = ends). [ ]: non-standard residue; d: D form. The star is where a group is joined. Pro(3R,4S-CMe2) = CC1(C)[C@@H]2[C@@H](C(=O)O)NC[C@@H]21; Pro(trans-4-Ph) = O=C(O)[C@@H]1C[C@@H](c2ccccc2)CN1; Trp(7-aza) = N[C@@H](Cc1c[nH]c2ncccc12)C(=O)O; Phe(4-CH2NH2) = NCc1ccc(C[C@H](N)C(=O)O)cc1; Pro(4S-NH2) = N[C@@H]1CN[C@H](C(=O)O)C1; Pro(4,4-F2) = O=C(O)[C@@H]1CC(F)(F)CN1; mXylylene = c1cc(C[*:1])cc(C[*:2])c1; Val(3-OH) = CC(C)(O)[C@H](N)C(=O)O; Myristoyl = CCCCCCCCCCCCCC(=O)*; Aad = N[C@@H](CCCC(=O)O)C(=O)O; Chg = N[C@H](C(=O)O)C1CCCCC1; Tle = CC(C)(C)[C@H](N)C(=O)O; NMeA = CN[C@@H](C)C(=O)O; Nva = CCC[C@H](N)C(=O)O; Mpa = O=C(O)CCS; Sar = CNCC(=O)O

Target: human PCSK9 / human LDLR EGFa domain interaction (Homo sapiens, UniProt Q8NBP7)
Sequence (Q8NBP7 153-692): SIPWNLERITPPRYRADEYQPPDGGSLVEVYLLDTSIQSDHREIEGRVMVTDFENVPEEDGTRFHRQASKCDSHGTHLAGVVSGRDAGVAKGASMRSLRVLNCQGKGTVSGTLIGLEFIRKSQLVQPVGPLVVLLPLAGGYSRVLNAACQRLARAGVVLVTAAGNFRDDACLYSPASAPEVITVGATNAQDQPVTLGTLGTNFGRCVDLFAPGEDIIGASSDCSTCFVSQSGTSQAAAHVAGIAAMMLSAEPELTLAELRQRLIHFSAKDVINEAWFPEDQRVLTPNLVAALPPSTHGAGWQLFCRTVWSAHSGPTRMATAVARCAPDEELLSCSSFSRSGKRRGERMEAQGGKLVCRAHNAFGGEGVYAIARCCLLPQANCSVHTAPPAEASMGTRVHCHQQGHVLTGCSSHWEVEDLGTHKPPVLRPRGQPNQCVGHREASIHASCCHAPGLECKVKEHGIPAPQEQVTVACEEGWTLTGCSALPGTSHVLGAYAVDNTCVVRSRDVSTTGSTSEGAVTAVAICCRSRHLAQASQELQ
Sequence (Q8NBP7 31-152 partner limits assumed): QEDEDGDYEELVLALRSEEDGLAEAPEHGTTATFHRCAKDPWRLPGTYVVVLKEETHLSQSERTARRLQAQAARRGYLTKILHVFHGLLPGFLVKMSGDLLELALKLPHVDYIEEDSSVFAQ
Assay: TR-FRET assay of inhibition of the PCSK9-LDLR protein-protein interaction
Assay type: binding
Conditions: 20 nM biotinylated human PCSK9 + 20 nM his-tagged human LDLR EGFa domain, 2 hours room temperature
Experimental: A time-resolved fluorescence resonance energy (TR-FRET) assay was used to measure inhibition of the PCSK9-LDLR protein-protein interaction. Briefly, 20 nM avitag-biotinylated human PCSK9 was incubated with 20 nM his-tagged human LDLR EGFa domain in the presence of 5 nM LANCE Ulight Streptavidin (Perkin Elmer) and 5 nM europium-Anti-6×His (Perkin Elmer) for 2 hours covered at room temperature in buffer containing 50 mM HEPES, 150 mM NaCl, 5 mM CaCl2, 0.01% BSA and 0.01% Surfactant P20. Compounds were tested in dose-response and concentrations giving half-maximal inhibition calculated using a 4-parameter fit equation.

SMILES	IC50
CCC[C@H](NC(C)=O)C(=O)N[C@H]1CSCc2cccc(c2)CSC[C@@H](C(N)=O)NC(=O)[C@H]([C@@H](C)O)NC(=O)[C@H](C2CCCCC2)NC(=O)[C@H](Cc2c[nH]c3ncccc23)NC(=O)[C@H](Cc2cnc[nH]2)NC(=O)[C@H](CCC(=O)O)NC(=O)[C@H](Cc2c[nH]c3ncccc23)NC(=O)[C@H]([C@@H](C)O)NC(=O)[C@H]2CCCN2C(=O)[C@H](Cc2ccc(O)cc2)NC(=O)[C@H](C(C)(C)C)NC1=O [Compound 001] (Ac-[Nva]C[Tle]Y[dP]T[Trp(7-aza)]EH[Trp(7-aza)][Chg]TC-NH2; linker 2-13 via mXylylene)	1000 to 12100 nM
CCCCCCCCCCCCCC(=O)NCCCC[C@H](NC(C)=O)C(=O)N[C@@H](CCC)C(=O)N[C@H]1CSCc2cccc(c2)CSC[C@@H](C(N)=O)NC(=O)[C@H]([C@@H](C)O)NC(=O)[C@H](C2CCCCC2)NC(=O)[C@H](Cc2c[nH]c3ncccc23)NC(=O)[C@H](Cc2c[nH]cn2)NC(=O)[C@H](CCC(=O)O)NC(=O)[C@H](Cc2c[nH]c3ncccc23)NC(=O)[C@H]([C@@H](C)O)NC(=O)[C@@H]2CCCN2C(=O)[C@H](Cc2ccc(O)cc2)NC(=O)[C@H](C(C)(C)C)NC1=O [Compound 003] (Ac-K(Myristoyl)[Nva]C[Tle]YPT[Trp(7-aza)]EH[Trp(7-aza)][Chg]TC-NH2; linker 3-14 via mXylylene)	1 to 100 nM
CCC[C@@H]1NC(=O)[C@H](Cc2c[nH]c3ncccc23)NC(=O)[C@H]([C@@H](C)O)NC(=O)[C@@H]2CC(F)(F)CN2C(=O)[C@H](Cc2ccc(O)cc2)NC(=O)[C@H](C(C)(C)C)NC(=O)CCSCc2cccc(c2)CSC[C@@H](C(N)=O)NC(=O)[C@H]([C@@H](C)O)NC(=O)[C@H](CCC)NC(=O)[C@H](Cc2ccc(O)cc2)NC(=O)[C@H](CCC(=O)O)NC1=O [Compound 004] ([Mpa][Tle]Y[Pro(4,4-F2)]T[Trp(7-aza)][Nva]EY[Nva]TC-NH2; linker 1-12 via mXylylene)	1000 to 12100 nM
CCC[C@@H]1NC(=O)[C@H](Cc2c[nH]c3ncccc23)NC(=O)[C@H]([C@@H](C)O)NC(=O)[C@@H]2C[C@@H](c3ccccc3)CN2C(=O)[C@H](Cc2ccc(O)cc2)NC(=O)[C@H](C(C)(C)C)NC(=O)CCSCc2cccc(c2)CSC[C@@H](C(N)=O)NC(=O)[C@H]([C@@H](C)O)NC(=O)[C@H](CCC)NC(=O)[C@H](Cc2ccc(O)cc2)NC(=O)[C@H](CCC(=O)O)NC1=O [Compound 005] ([Mpa][Tle]Y[Pro(trans-4-Ph)]T[Trp(7-aza)][Nva]EY[Nva]TC-NH2; linker 1-12 via mXylylene)	1000 to 12100 nM
CCC[C@H](NC(C)=O)C(=O)N[C@H]1CSCc2cccc(c2)CSC[C@@H](C(N)=O)NC(=O)[C@H]([C@@H](C)O)NC(=O)[C@H](C2CCCCC2)NC(=O)[C@H](Cc2c[nH]c3ncccc23)NC(=O)[C@H](Cc2cnc[nH]2)NC(=O)[C@H](CCC(=O)O)NC(=O)[C@H](Cc2c[nH]c3ncccc23)NC(=O)[C@H]([C@@H](C)O)NC(=O)[C@H](C)N(C)C(=O)[C@H](Cc2ccc(O)cc2)NC(=O)[C@H](C(C)(C)C)NC1=O [Compound 006] (Ac-[Nva]C[Tle]Y[NMeA]T[Trp(7-aza)]EH[Trp(7-aza)][Chg]TC-NH2; linker 2-13 via mXylylene)	1000 to 12100 nM
CCC[C@H](NC(C)=O)C(=O)N[C@H]1CSCc2cccc(c2)CSC[C@@H](C(N)=O)NC(=O)[C@H]([C@@H](C)O)NC(=O)[C@H](C2CCCCC2)NC(=O)[C@H](Cc2c[nH]c3ncccc23)NC(=O)[C@H](Cc2c[nH]cn2)NC(=O)[C@H](CCC(=O)O)NC(=O)[C@H](Cc2c[nH]c3ncccc23)NC(=O)[C@H]([C@@H](C)O)NC(=O)CN(C)C(=O)[C@H](Cc2ccc(O)cc2)NC(=O)[C@H](C(C)(C)C)NC1=O [Compound 007] (Ac-[Nva]C[Tle]Y[Sar]T[Trp(7-aza)]EH[Trp(7-aza)][Chg]TC-NH2; linker 2-13 via mXylylene)	1000 to 12100 nM
CCC[C@@H]1NC(=O)[C@H](Cc2c[nH]c3ncccc23)NC(=O)[C@H]([C@@H](C)O)NC(=O)[C@@H]2[C@@H]3[C@H](CN2C(=O)[C@H](Cc2ccc(O)cc2)NC(=O)[C@H](C(C)(C)C)NC(=O)CCSCc2cccc(c2)CSC[C@@H](C(N)=O)NC(=O)[C@H]([C@@H](C)O)NC(=O)[C@H](CCC)NC(=O)[C@H](Cc2ccc(O)cc2)NC(=O)[C@H](CCC(=O)O)NC1=O)C3(C)C [Compound 008] ([Mpa][Tle]Y[Pro(3R,4S-CMe2)]T[Trp(7-aza)][Nva]EY[Nva]TC-NH2; linker 1-12 via mXylylene)	100 to 1000 nM
CCC[C@@H]1NC(=O)[C@H](Cc2c[nH]c3ncccc23)NC(=O)[C@H]([C@@H](C)O)NC(=O)[C@@H]2C[C@H](N)CN2C(=O)[C@H](Cc2ccc(O)cc2)NC(=O)[C@H](C(C)(C)C)NC(=O)CCSCc2cccc(c2)CSC[C@@H](C(N)=O)NC(=O)[C@H]([C@@H](C)O)NC(=O)[C@H](C2CCCCC2)NC(=O)[C@H](Cc2ccc(O)cc2)NC(=O)[C@H](CCCC(=O)O)NC1=O [Compound 010] ([Mpa][Tle]Y[Pro(4S-NH2)]T[Trp(7-aza)][Nva][Aad]Y[Chg]TC-NH2; linker 1-12 via mXylylene)	100 to 1000 nM
CCC[C@@H]1NC(=O)[C@H](Cc2c[nH]c3ncccc23)NC(=O)[C@H]([C@@H](C)O)NC(=O)[C@H](Cc2cnc[nH]2)NC(=O)[C@H](Cc2ccc(O)cc2)NC(=O)[C@H](C(C)(C)C)NC(=O)[C@@H](NC(C)=O)CCC(=O)NCc2ccc(cc2)C[C@@H](C(N)=O)NC(=O)[C@H]([C@@H](C)O)NC(=O)[C@H](CCC)NC(=O)[C@H](Cc2ccc(O)cc2)NC(=O)[C@H](CCC(=O)O)NC1=O [Compound 013] (Ac-E[Tle]YHT[Trp(7-aza)][Nva]EY[Nva]T[Phe(4-CH2NH2)]-NH2; lactam 1-12)	100 to 1000 nM
CCC[C@@H]1NC(=O)[C@H](Cc2c[nH]c3ncccc23)NC(=O)[C@H]([C@@H](C)O)NC(=O)[C@H](Cc2cnc[nH]2)NC(=O)[C@H](Cc2ccc(O)cc2)NC(=O)[C@H](C(C)(C)C)NC(=O)CCSCc2cccc(c2)CSC[C@H](C(N)=O)NC(=O)[C@H]([C@@H](C)O)NC(=O)[C@H](C2CCCCC2)NC(=O)[C@H](Cc2ccc(O)cc2)NC(=O)[C@H](CCC(=O)O)NC1=O [Compound 043] ([Mpa][Tle]YHT[Trp(7-aza)][Nva]EY[Chg]T[dC]-NH2; linker 1-12 via mXylylene)	100 to 1000 nM
CCC[C@@H]1NC(=O)[C@H](Cc2c[nH]c3ncccc23)NC(=O)[C@H]([C@@H](C)O)NC(=O)[C@H](Cc2cnc[nH]2)NC(=O)[C@H](Cc2ccc(O)cc2)NC(=O)[C@H](C(C)(C)C)NC(=O)CCSCc2cccc(c2)CSC[C@H](C(N)=O)NC(=O)[C@H](C(C)(C)O)NC(=O)[C@H](CCC)NC(=O)[C@H](Cc2ccc(O)cc2)NC(=O)[C@H](CCC(=O)O)NC1=O [Compound 044] ([Mpa][Tle]YHT[Trp(7-aza)][Nva]EY[Nva][Val(3-OH)][dC]-NH2; linker 1-12 via mXylylene)	100 to 1000 nM
CCC[C@@H]1NC(=O)[C@H](Cc2c[nH]c3ncccc23)NC(=O)[C@H]([C@@H](C)O)NC(=O)[C@H](CCCCN)NC(=O)[C@H](Cc2ccc(O)cc2)NC(=O)[C@H](C(C)(C)C)NC(=O)CCSCc2cccc(c2)CSC[C@@H](C(N)=O)NC(=O)[C@H]([C@@H](C)O)NC(=O)[C@H](C2CCCCC2)NC(=O)[C@H](Cc2ccc(O)cc2)NC(=O)[C@H](CCC(=O)O)NC1=O [Compound 046] ([Mpa][Tle]YKT[Trp(7-aza)][Nva]EY[Chg]TC-NH2; linker 1-12 via mXylylene)	100 to 1000 nM
